According to ChEMBL document CHEMBL2203135, “Novel progesterone receptor modulators: 4-aryl-phenylsulfonamides” (Bioorg Med Chem Lett, 2012):
The source made the active and inactive calls. The rule behind the calls is not given here.

Columns and labels:
[1] = biological target: T1, Estrogen receptor (Homo sapiens, UniProt P03372); test: (§1) Antagonist activity at estrogen receptor by cellular reporter gene assay; assay type: functional
T1 sequence (P03372 whole entry): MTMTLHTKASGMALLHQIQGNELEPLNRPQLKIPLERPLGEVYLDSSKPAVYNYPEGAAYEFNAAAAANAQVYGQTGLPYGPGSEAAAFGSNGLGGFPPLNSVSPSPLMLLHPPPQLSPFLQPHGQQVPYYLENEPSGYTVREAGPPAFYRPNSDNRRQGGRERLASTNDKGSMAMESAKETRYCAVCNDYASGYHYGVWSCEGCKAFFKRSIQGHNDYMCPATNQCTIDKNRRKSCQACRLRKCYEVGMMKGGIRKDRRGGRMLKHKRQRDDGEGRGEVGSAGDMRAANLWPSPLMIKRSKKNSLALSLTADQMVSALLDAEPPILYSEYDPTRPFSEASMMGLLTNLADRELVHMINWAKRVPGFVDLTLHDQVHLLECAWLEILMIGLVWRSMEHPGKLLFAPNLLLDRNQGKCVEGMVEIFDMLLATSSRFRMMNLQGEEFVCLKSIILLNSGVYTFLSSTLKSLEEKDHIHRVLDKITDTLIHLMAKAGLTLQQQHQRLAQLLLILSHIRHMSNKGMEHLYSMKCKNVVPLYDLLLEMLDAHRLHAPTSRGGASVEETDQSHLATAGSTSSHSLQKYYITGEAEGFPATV

[2] = biological target: T2, Glucocorticoid receptor (Homo sapiens, UniProt P04150); test: Antagonist activity at glucocorticoid receptor by cellular reporter gene assay; assay type: functional
T2 sequence (P04150 whole entry): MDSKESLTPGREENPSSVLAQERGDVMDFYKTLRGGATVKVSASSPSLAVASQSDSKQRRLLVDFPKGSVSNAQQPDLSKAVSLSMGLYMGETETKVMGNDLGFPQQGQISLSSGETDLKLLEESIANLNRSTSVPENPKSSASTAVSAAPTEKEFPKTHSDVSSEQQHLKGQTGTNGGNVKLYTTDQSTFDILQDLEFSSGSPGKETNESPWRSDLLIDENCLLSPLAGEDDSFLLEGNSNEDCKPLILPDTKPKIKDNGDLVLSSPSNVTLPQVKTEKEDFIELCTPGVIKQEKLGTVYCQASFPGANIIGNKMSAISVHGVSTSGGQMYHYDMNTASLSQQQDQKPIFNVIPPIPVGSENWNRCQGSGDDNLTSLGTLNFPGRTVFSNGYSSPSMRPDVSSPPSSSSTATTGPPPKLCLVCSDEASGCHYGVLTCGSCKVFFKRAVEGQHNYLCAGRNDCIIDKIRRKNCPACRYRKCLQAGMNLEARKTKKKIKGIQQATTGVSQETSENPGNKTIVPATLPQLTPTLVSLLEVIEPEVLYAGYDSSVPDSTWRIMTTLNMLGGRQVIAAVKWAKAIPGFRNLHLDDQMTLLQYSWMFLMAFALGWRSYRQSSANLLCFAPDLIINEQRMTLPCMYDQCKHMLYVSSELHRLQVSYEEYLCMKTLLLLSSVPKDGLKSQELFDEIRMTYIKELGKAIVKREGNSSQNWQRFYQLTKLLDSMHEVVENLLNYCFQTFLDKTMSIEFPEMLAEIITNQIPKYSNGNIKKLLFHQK

[3] = test system: Plasma; test: Free plasma concentration in ovariectomized rhesus monkey at 5 mg/kg/day, po; assay type: ADME, organism-based, Macaca mulatta; design: route oral; settings: in vivo
[4] = biological target: T3, Estrogen receptor (Homo sapiens) (UniProt P03372); test: as §1; assay type: functional
T3 sequence (whole entry): T1 sequence (P03372 whole entry)

[5] = AUC (0 to last) in in ovariectomized rhesus monkey at 5 mg/kg/day, po; assay type: ADME, organism-based, Macaca mulatta; design: dose 5 mg/kg/day, time 0 - last, route oral; settings: female, plasma
[6] = AUC (0 to infinity) in cynomolgus monkey at 2 mg/kg, po; assay type: ADME, organism-based, Macaca fascicularis; design: time infinity, dose 2 mg/kg, route oral; settings: plasma
[7] = Volume of distribution at steady state in cynomolgus monkey at 2 mg/kg, iv; assay type: ADME, organism-based, Macaca fascicularis; design: dose 2 mg/kg, route intravenous; settings: in vivo, read-out: Vdss
[8] = Cmax in rat at 2 mg/kg, po; assay type: ADME, organism-based; design: dose 2 mg/kg, route oral; settings: in vivo
[9] = test system: Rhesus monkey; test: Induction of early menstruation in ovariectomized rhesus monkey menses induction model at 5 mg/kg/day, po; assay type: functional, organism-based; settings: Macaca mulatta
[10] = biological target: T4, Mineralocorticoid receptor (Homo sapiens) (UniProt P08235); test: Antagonist activity at mineralocorticoid receptor at 1 uM by cellular reporter gene assay; assay type: functional; design: scale not given: the % may be the effect or the level left
T4 sequence (whole entry): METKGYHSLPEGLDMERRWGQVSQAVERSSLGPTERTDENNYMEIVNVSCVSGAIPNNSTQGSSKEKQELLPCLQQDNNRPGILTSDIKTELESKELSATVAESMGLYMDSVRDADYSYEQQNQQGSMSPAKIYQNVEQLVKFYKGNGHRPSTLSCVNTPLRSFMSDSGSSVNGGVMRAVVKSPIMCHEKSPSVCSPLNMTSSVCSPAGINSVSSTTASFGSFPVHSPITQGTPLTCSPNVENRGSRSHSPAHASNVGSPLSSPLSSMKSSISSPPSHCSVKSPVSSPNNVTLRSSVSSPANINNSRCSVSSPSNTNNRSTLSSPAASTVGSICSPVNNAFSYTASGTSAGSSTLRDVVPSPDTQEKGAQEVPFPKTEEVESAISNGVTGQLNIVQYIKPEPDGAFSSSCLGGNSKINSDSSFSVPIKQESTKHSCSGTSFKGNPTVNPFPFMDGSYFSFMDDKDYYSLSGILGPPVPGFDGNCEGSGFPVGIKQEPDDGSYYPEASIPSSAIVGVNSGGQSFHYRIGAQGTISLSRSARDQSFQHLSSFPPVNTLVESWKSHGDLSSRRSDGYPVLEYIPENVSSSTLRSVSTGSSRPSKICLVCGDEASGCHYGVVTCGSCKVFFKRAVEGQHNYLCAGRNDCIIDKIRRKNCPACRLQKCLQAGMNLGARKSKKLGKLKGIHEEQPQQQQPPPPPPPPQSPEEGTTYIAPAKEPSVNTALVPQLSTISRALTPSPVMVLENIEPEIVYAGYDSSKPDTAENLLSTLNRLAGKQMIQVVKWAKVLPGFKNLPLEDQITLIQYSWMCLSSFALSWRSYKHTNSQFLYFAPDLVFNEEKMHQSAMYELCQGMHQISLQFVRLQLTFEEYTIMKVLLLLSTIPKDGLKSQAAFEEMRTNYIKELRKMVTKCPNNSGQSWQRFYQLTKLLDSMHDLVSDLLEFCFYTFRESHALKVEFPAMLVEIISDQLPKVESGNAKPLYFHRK

[11] = test system: Salmonella typhimurium; test: Mutagenicity in Salmonella typhimurium in absence of liver S9 fraction by non-GLP Ames test; assay type: toxicity, organism-based; settings: salmonella enterica subsp. enterica serovar typhimurium
[12] = Half life in rat at 2 mg/kg, po; assay type: ADME, organism-based; design: dose 2 mg/kg, route oral; settings: in vivo
[13] = AUC (0 to infinity) in cynomolgus monkey at 2 mg/kg, iv; assay type: ADME, organism-based, Macaca fascicularis; design: time infinity, dose 2 mg/kg, route intravenous; settings: plasma
[14] = Clearance in rat at 2 mg/kg, iv; assay type: ADME, organism-based; design: dose 2 mg/kg, route intravenous; settings: in vivo
[15] = Half life in cynomolgus monkey at 2 mg/kg, po; assay type: ADME, organism-based, Macaca fascicularis; design: dose 2 mg/kg, route oral; settings: in vivo
[16] = AUC (0 to infinity) in rat at 2 mg/kg, po; assay type: ADME, organism-based; design: time infinity, dose 2 mg/kg, route oral; settings: plasma
[17] = test system: Salmonella typhimurium; test: Mutagenicity in Salmonella typhimurium in presence of liver S9 fraction by non-GLP Ames test; assay type: toxicity, organism-based; settings: salmonella enterica subsp. enterica serovar typhimurium
[18] = Volume of distribution at steady state in rat at 2 mg/kg, iv; assay type: ADME, organism-based; design: dose 2 mg/kg, route intravenous; settings: in vivo, read-out: Vdss

| IC50 [1] [nM] | IC50 [2] [nM] | Cp(f) [3] [nM] | Activity [4] | AUC(0-t) [5] [ng·h/mL] | AUC(0-inf) [6] [ng·h/mL] | Vd [7] [L/kg] | Cmax [8] [ng/mL] | Activity [10] [%] | half-life [12] [h] | AUC(0-inf) [13] [ng·h/mL] | clearance [14] [mL/min/kg] | half-life [15] [h] | AUC(0-inf) [16] [ng·h/mL] | Vd [18] [L/kg] | Compound | Activity [9] | Activity [11] | Activity [17] |
| --- | --- | --- | --- | --- | --- | --- | --- | --- | --- | --- | --- | --- | --- | --- | --- | --- | --- | --- |
| 2000 | 120 |  |  |  |  |  |  |  |  |  |  |  |  |  | COC[C@]1(OC)CC[C@H]2[C@@H]3CCC4=CC(=O)CCC4=C3[C@@H](c3ccc(/C=N/O)cc3)C[C@@]21C [ASOPRISNIL] |  |  |  |
|  |  | 11 | inactive | 28500 | 13700 | 0.3 | 2800 | 60 | 2.3 | 18000 | 2.6 | 2.7 | 15200 | 0.5 | CCS(=O)(=O)Nc1cc(F)c(-c2ccc(C#N)n2C)c(F)c1 | Active | Non-toxic | Non-toxic |
